This is an account of results in patent US8993622B2, “Antiviral compounds” (Eirium AB, priority 2010, dated 2015).

One series concerns cells. In words: Cellular toxicity of select compounds (% dead cells, CC50). The format is cell-based. The settings on record: 24 h.
Another series concerns RCAd11pGFP vector. In words: Screening assay: GFP expression from RCAd11pGFP vector in K562 cells. The series is classed as cell-based. As to conditions: Human adenovirus sp., K562, 24 h, read-out: 50% inhibitory concentration (IC50), inhibition of GFP expression. An excerpt:
The screening assay is based on GFP expression from the RCAd11pGFP vector in a K562 cell system. […] To be considered as a potential hit, the compound had to decrease the intensity of fluorescence by more than 80% and kill no more than 50% of the cells. […] None of the compounds selected for further study were autofluorescent.
To verify the hits and to exclude false positives, the compounds were serially diluted in 7 steps for dose-response analysis using the screening assay. […] Twenty-four compounds met these criteria. The distribution of fluorescence inhibition and cellular toxicity detected in the screening process of these 24 hits is summarized in FIG. 1. One of the most efficient and least toxic compounds was A02, 2-[[2-(benzoylamino)benzoyl]amino]-benzoic acid. This compound was evaluated further as a potential drug candidate.

For another series, the system named is Ad41 (F). In words: Quantitative real-time PCR of adenovirus DNA replication in A549 cells (Ad41). The format is cell-based. As to conditions: Human adenovirus sp., read-out: % inhibition of DNA replication (SD). The method, then: (§1) Approximately 1×10^5 A549 cells were seeded in 24-well plates (Nunc) on the day before infection. On the day of infection, the cells in one well were counted to establish the amount of virions to be added. The growth medium was removed and compound and virus were added simultaneously to the cells in 700 μl DMEM with 0.75 g/l NaHCO3, 20 mM HEPES, 1×PEST, and 1% FBS. Compounds were added in concentrations ranging from 0.5 μM to 15 μM. The final concentration of DMSO was less than 1% in all samples. One pg of Ad virions was added per cell. The plate was incubated at 37° C. in 5% CO2 and 24 h after infection the cells were harvested, washed once, and resuspended in PBS. […] The design of primers and probes for analysis of various Ad types representing different adenovirus species with quantitative PCR has been described previously (Allard et al. 2001. Rapid typing of human adenoviruses by a general PCR combined with restriction endonuclease analysis. Journal Clinical Microbiology 39:498-505). Briefly, quantitative real-time PCR was carried out using a degenerate primer pair, Kadgen1 (forward)—Kadgen 2 (reverse) (5′-CWT ACA TGC ACA TCK CSG G-3′—SEQ ID NO:1, and 5′-CRC GGG CRA AYT GCA CCA G-3′—SEQ ID NO:2, respectively); DNA technology A/S, Aarhus, Denmark). […] Real-time PCR was performed in an ABI PRISM 7700 Sequence Detector (Applied Biosystems) and analyzed with Sequence Detector v1.7a software.
(Quantitative PCR measures a nucleic acid by following its amplification.)

A further series concerns Ad11p hexon protein. In words: FACS analysis of Ad11p hexon protein expression in A549 cells. As to conditions: 24 h. The format is cell-based, human adenovirus. The method, then: FIG. 4. A. Binding of ^35S-labelled Ad5 to A549 cells in the presence of A02. Error bars represent the standard deviation of the means from three independent duplicate experiments. B. Flowcytometry assay detecting Ad5 (grey bars) and Ad11 (checkered bars) hexon protein following 24 h incubation with virus and compound A02. Error bars represent the standard deviation of the means from two independent duplicate experiments.
A binding assay using isotope-labeled virions was used to address whether the compound would prevent viral adhesion to host cells. At 15 μM, compound A02 has no effect on Ad5 binding to the surface of A549 cells (FIG. 4A). To further verify inhibition of viral replication, the effect on the expression of the most abundant viral structural protein (hexon) in A549 cells was studied by FACS analysis.
(In general: A flow cytometer gives signals particle by particle.)

In the next series the test system is Ad37 (D). The series can be described thus: Quantitative real-time PCR of adenovirus DNA replication in A549 cells (Ad37). As to conditions: Human adenovirus sp., read-out: % inhibition of DNA replication (SD). The series is classed as cell-based. As to the method: as §1
Another series concerns Ad31 (A). In words: Quantitative real-time PCR of adenovirus DNA replication in A549 cells (Ad31). The series is classed as cell-based. The settings on record: Human adenovirus sp., read-out: % inhibition of DNA replication (SD). The method, then: as §1
The test system of a further series is Ad4 (E). In words: Quantitative real-time PCR of adenovirus DNA replication in A549 cells (Ad4). The series is classed as cell-based. The settings on record: Human adenovirus sp., read-out: % inhibition of DNA replication (SD). The method, then: as §1
The target of the next series is HIV integrase (Human immunodeficiency virus type 1 group M subtype B, UniProt P04585). As to conditions: US 2006/0035245; cited from earlier work.

As usually defined, the inhibition is the percentage by which the read-out fell short of the control. In the case of `O=C(Nc1ccccc1C(=O)Nc1ccccc1C(=O)O)c1ccccc1` [Compound A02, 2-[[2-(Benzoylamino)benzoyl]amino]-benzoic acid], in the series with cells (30 μM), the “Toxicity at 30 μM (% dead cells after 24 h)” value is 20 ± 7%. Also, in the series on cells (60 μM), the “Toxicity at 60 μM (% dead cells after 24 h)” value was 29 ± 3%. For the same compound, in the series with RCAd11pGFP vector, the IC50 stood at 28.6 µM. Further, the inhibition at 5 µM in the series on Ad41 (F) (5 μM) was 80%; with Ad37 (D) (5 μM), 86%; in the series with Ad31 (A) (5 μM), 86%; in the series on Ad4 (E) (5 μM), 85%. In addition, the inhibition at 15 µM turned out to be 88% in the series on Ad41 (F) (15 μM), 94% in the series on Ad37 (D) (15 μM), 98% with Ad31 (A) (15 μM) and 96% in the series with Ad4 (E) (15 μM). The “expression of Ad11p hexon protein” value in the series with Ad11p hexon protein is “inhibited by compound A02 in a dose-dependent manner”. Further, the “inhibition of HIV integrase” value at HIV integrase is recorded as “failed to inhibit”.
